#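 Step 1: Grow cells in 96-well plates. Step 2: Expose to compound for 48 hours at 5 concentrations. Step 3: Interpolate endpoints linearly; if unreached, use highest concentration. TGI is the concentration that stops growth completely.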
# System: ACHN renal
# Experiment: NCI anticancer screen, dose series, 48 h
row,SMILES,TGI [µM]
1,CNC(C#N)c1ccc(OC)cc1 (stereo not drawn),> 100
2,COc1ccccc1/C(=N\OCCC(=O)O)c1cccs1,> 100
3,CCOC(=O)c1c(-c2ccc(OC)cc2)c(C#N)c(=S)n(C2OC(COC(C)=O)C(OC(C)=O)C(OC(C)=O)C2OC(C)=O)c1-c1ccccc1 (stereo not drawn),> 100
4,CCN(CC)CCC(=O)/C=C/c1ccccc1,26.2
5,CCCC[C@@H]1CCN2C[C@@H](O)[C@@H](O)[C@@H]2[C@H]1O,> 100

# System: COLO 205 colon
# Experiment: NCI anticancer screen, dose series, 48 h
row,SMILES,TGI [µM]
1,CN=c1nc2sc3c(c2c(NC(=S)NC)s1)CCCC3,> 100
2,CC(C)C(=O)[C@@]1(C)SC[C@H]2CCN=C21,> 100
3,COc1cc(C(=O)n2c3ccc(Br)cc3c3nc4ccccc4nc32)cc(OC)c1OC,> 100
4,CCOC(=O)C1=C(C)N(Cc2ccc(Cl)cc2Cl)C2(O)C=CC(=O)C3C(=O)N(c4ccccc4)C(=O)C132 (stereo not drawn),3.36
5,O=c1cnn(C2OC(C(O)CO)C(O)C2O)c(=O)[nH]1 (stereo not drawn),> 100
6,CNC(C#N)c1ccc(OC)cc1 (stereo not drawn),> 100
7,COc1ccccc1/C(=N\OCCC(=O)O)c1cccs1,> 100
8,CCN(CC)CCC(=O)/C=C/c1ccccc1,18
9,CCCC[C@@H]1CCN2C[C@@H](O)[C@@H](O)[C@@H]2[C@H]1O,> 100

# System: HL-60(TB) leukemia
# Experiment: NCI anticancer screen, dose series, 48 h
row,SMILES,TGI [µM]
1,CN=c1nc2sc3c(c2c(NC(=S)NC)s1)CCCC3,> 100
2,CC(C)C(=O)[C@@]1(C)SC[C@H]2CCN=C21,> 100
3,COc1cc(C(=O)n2c3ccc(Br)cc3c3nc4ccccc4nc32)cc(OC)c1OC,> 100
4,CCOC(=O)C1=C(C)N(Cc2ccc(Cl)cc2Cl)C2(O)C=CC(=O)C3C(=O)N(c4ccccc4)C(=O)C132 (stereo not drawn),6.67
5,O=c1cnn(C2OC(C(O)CO)C(O)C2O)c(=O)[nH]1 (stereo not drawn),> 100
6,Nc1ccc(Oc2ccc(C34CC5CC6C3CC3CC4C(C5)C6(c4ccc(Oc5ccc(N)cc5)cc4)C3)cc2)cc1,22
7,CNC(C#N)c1ccc(OC)cc1 (stereo not drawn),> 100
8,COc1ccccc1/C(=N\OCCC(=O)O)c1cccs1,> 100
9,CCOC(=O)c1c(-c2ccc(OC)cc2)c(C#N)c(=S)n(C2OC(COC(C)=O)C(OC(C)=O)C(OC(C)=O)C2OC(C)=O)c1-c1ccccc1 (stereo not drawn),> 100
10,CCN(CC)CCC(=O)/C=C/c1ccccc1,> 100
11,CCCC[C@@H]1CCN2C[C@@H](O)[C@@H](O)[C@@H]2[C@H]1O,> 100

# System: OVCAR-4 ovarian
# Experiment: NCI anticancer screen, dose series, 48 h
row,SMILES,TGI [µM]
1,CN=c1nc2sc3c(c2c(NC(=S)NC)s1)CCCC3,> 100
2,CC(C)C(=O)[C@@]1(C)SC[C@H]2CCN=C21,> 100
3,COc1cc(C(=O)n2c3ccc(Br)cc3c3nc4ccccc4nc32)cc(OC)c1OC,> 100
4,CCOC(=O)C1=C(C)N(Cc2ccc(Cl)cc2Cl)C2(O)C=CC(=O)C3C(=O)N(c4ccccc4)C(=O)C132 (stereo not drawn),4.2
5,O=c1cnn(C2OC(C(O)CO)C(O)C2O)c(=O)[nH]1 (stereo not drawn),> 100
6,Nc1ccc(Oc2ccc(C34CC5CC6C3CC3CC4C(C5)C6(c4ccc(Oc5ccc(N)cc5)cc4)C3)cc2)cc1,> 100
7,CNC(C#N)c1ccc(OC)cc1 (stereo not drawn),> 100
8,COc1ccccc1/C(=N\OCCC(=O)O)c1cccs1,> 100
9,CCOC(=O)c1c(-c2ccc(OC)cc2)c(C#N)c(=S)n(C2OC(COC(C)=O)C(OC(C)=O)C(OC(C)=O)C2OC(C)=O)c1-c1ccccc1 (stereo not drawn),> 100
10,CCN(CC)CCC(=O)/C=C/c1ccccc1,> 94.4
11,CCCC[C@@H]1CCN2C[C@@H](O)[C@@H](O)[C@@H]2[C@H]1O,> 100

# System: M14 melanoma
# Experiment: NCI anticancer screen, dose series, 48 h
row,SMILES,TGI [µM]
1,CC(C)C(=O)[C@@]1(C)SC[C@H]2CCN=C21,> 100
2,COc1cc(C(=O)n2c3ccc(Br)cc3c3nc4ccccc4nc32)cc(OC)c1OC,> 100
3,CCOC(=O)C1=C(C)N(Cc2ccc(Cl)cc2Cl)C2(O)C=CC(=O)C3C(=O)N(c4ccccc4)C(=O)C132 (stereo not drawn),16
4,O=c1cnn(C2OC(C(O)CO)C(O)C2O)c(=O)[nH]1 (stereo not drawn),> 100
5,Nc1ccc(Oc2ccc(C34CC5CC6C3CC3CC4C(C5)C6(c4ccc(Oc5ccc(N)cc5)cc4)C3)cc2)cc1,21.4
6,CNC(C#N)c1ccc(OC)cc1 (stereo not drawn),> 100
7,CCOC(=O)c1c(-c2ccc(OC)cc2)c(C#N)c(=S)n(C2OC(COC(C)=O)C(OC(C)=O)C(OC(C)=O)C2OC(C)=O)c1-c1ccccc1 (stereo not drawn),> 100
8,CCN(CC)CCC(=O)/C=C/c1ccccc1,33
9,CCCC[C@@H]1CCN2C[C@@H](O)[C@@H](O)[C@@H]2[C@H]1O,> 100

# System: MALME-3M melanoma
# Experiment: NCI anticancer screen, dose series, 48 h
row,SMILES,TGI [µM]
1,CN=c1nc2sc3c(c2c(NC(=S)NC)s1)CCCC3,> 100
2,CC(C)C(=O)[C@@]1(C)SC[C@H]2CCN=C21,> 100
3,COc1cc(C(=O)n2c3ccc(Br)cc3c3nc4ccccc4nc32)cc(OC)c1OC,> 100
4,CCOC(=O)C1=C(C)N(Cc2ccc(Cl)cc2Cl)C2(O)C=CC(=O)C3C(=O)N(c4ccccc4)C(=O)C132 (stereo not drawn),8.67
5,O=c1cnn(C2OC(C(O)CO)C(O)C2O)c(=O)[nH]1 (stereo not drawn),> 100
6,Nc1ccc(Oc2ccc(C34CC5CC6C3CC3CC4C(C5)C6(c4ccc(Oc5ccc(N)cc5)cc4)C3)cc2)cc1,2.81
7,CNC(C#N)c1ccc(OC)cc1 (stereo not drawn),> 100
8,COc1ccccc1/C(=N\OCCC(=O)O)c1cccs1,> 100
9,CCOC(=O)c1c(-c2ccc(OC)cc2)c(C#N)c(=S)n(C2OC(COC(C)=O)C(OC(C)=O)C(OC(C)=O)C2OC(C)=O)c1-c1ccccc1 (stereo not drawn),> 100
10,CCN(CC)CCC(=O)/C=C/c1ccccc1,33.1
11,CCCC[C@@H]1CCN2C[C@@H](O)[C@@H](O)[C@@H]2[C@H]1O,> 100

# System: A549 NSCLC
# Experiment: NCI anticancer screen, dose series, 48 h
row,SMILES,TGI [µM]
1,CC(C)C(=O)[C@@]1(C)SC[C@H]2CCN=C21,> 100
2,CCOC(=O)C1=C(C)N(Cc2ccc(Cl)cc2Cl)C2(O)C=CC(=O)C3C(=O)N(c4ccccc4)C(=O)C132 (stereo not drawn),5.74
3,O=c1cnn(C2OC(C(O)CO)C(O)C2O)c(=O)[nH]1 (stereo not drawn),> 100
4,Nc1ccc(Oc2ccc(C34CC5CC6C3CC3CC4C(C5)C6(c4ccc(Oc5ccc(N)cc5)cc4)C3)cc2)cc1,> 83.8
5,CNC(C#N)c1ccc(OC)cc1 (stereo not drawn),> 100
6,COc1ccccc1/C(=N\OCCC(=O)O)c1cccs1,> 100
7,CCOC(=O)c1c(-c2ccc(OC)cc2)c(C#N)c(=S)n(C2OC(COC(C)=O)C(OC(C)=O)C(OC(C)=O)C2OC(C)=O)c1-c1ccccc1 (stereo not drawn),> 100
8,CCN(CC)CCC(=O)/C=C/c1ccccc1,39.9
9,CCCC[C@@H]1CCN2C[C@@H](O)[C@@H](O)[C@@H]2[C@H]1O,> 100

# System: HCT-15 colon
# Experiment: NCI anticancer screen, dose series, 48 h
row,SMILES,TGI [µM]
1,CN=c1nc2sc3c(c2c(NC(=S)NC)s1)CCCC3,> 100
2,CC(C)C(=O)[C@@]1(C)SC[C@H]2CCN=C21,> 100
3,COc1cc(C(=O)n2c3ccc(Br)cc3c3nc4ccccc4nc32)cc(OC)c1OC,> 100
4,CCOC(=O)C1=C(C)N(Cc2ccc(Cl)cc2Cl)C2(O)C=CC(=O)C3C(=O)N(c4ccccc4)C(=O)C132 (stereo not drawn),3.88
5,O=c1cnn(C2OC(C(O)CO)C(O)C2O)c(=O)[nH]1 (stereo not drawn),> 100
6,Nc1ccc(Oc2ccc(C34CC5CC6C3CC3CC4C(C5)C6(c4ccc(Oc5ccc(N)cc5)cc4)C3)cc2)cc1,> 100
7,CNC(C#N)c1ccc(OC)cc1 (stereo not drawn),> 100
8,COc1ccccc1/C(=N\OCCC(=O)O)c1cccs1,> 100
9,CCOC(=O)c1c(-c2ccc(OC)cc2)c(C#N)c(=S)n(C2OC(COC(C)=O)C(OC(C)=O)C(OC(C)=O)C2OC(C)=O)c1-c1ccccc1 (stereo not drawn),> 100
10,CCN(CC)CCC(=O)/C=C/c1ccccc1,32
11,CCCC[C@@H]1CCN2C[C@@H](O)[C@@H](O)[C@@H]2[C@H]1O,> 100

# System: SN12C renal
# Experiment: NCI anticancer screen, dose series, 48 h
row,SMILES,TGI [µM]
1,CN=c1nc2sc3c(c2c(NC(=S)NC)s1)CCCC3,> 100
2,CC(C)C(=O)[C@@]1(C)SC[C@H]2CCN=C21,> 100
3,COc1cc(C(=O)n2c3ccc(Br)cc3c3nc4ccccc4nc32)cc(OC)c1OC,> 100
4,CCOC(=O)C1=C(C)N(Cc2ccc(Cl)cc2Cl)C2(O)C=CC(=O)C3C(=O)N(c4ccccc4)C(=O)C132 (stereo not drawn),4.93
5,O=c1cnn(C2OC(C(O)CO)C(O)C2O)c(=O)[nH]1 (stereo not drawn),> 100
6,Nc1ccc(Oc2ccc(C34CC5CC6C3CC3CC4C(C5)C6(c4ccc(Oc5ccc(N)cc5)cc4)C3)cc2)cc1,> 100
7,CNC(C#N)c1ccc(OC)cc1 (stereo not drawn),> 100
8,COc1ccccc1/C(=N\OCCC(=O)O)c1cccs1,> 100
9,CCOC(=O)c1c(-c2ccc(OC)cc2)c(C#N)c(=S)n(C2OC(COC(C)=O)C(OC(C)=O)C(OC(C)=O)C2OC(C)=O)c1-c1ccccc1 (stereo not drawn),> 100
10,CCN(CC)CCC(=O)/C=C/c1ccccc1,38.6
11,CCCC[C@@H]1CCN2C[C@@H](O)[C@@H](O)[C@@H]2[C@H]1O,> 100

# System: SK-OV-3 ovarian
# Experiment: NCI anticancer screen, dose series, 48 h
row,SMILES,TGI [µM]
1,CN=c1nc2sc3c(c2c(NC(=S)NC)s1)CCCC3,> 100
2,CC(C)C(=O)[C@@]1(C)SC[C@H]2CCN=C21,> 100
3,O=c1cnn(C2OC(C(O)CO)C(O)C2O)c(=O)[nH]1 (stereo not drawn),> 100
4,Nc1ccc(Oc2ccc(C34CC5CC6C3CC3CC4C(C5)C6(c4ccc(Oc5ccc(N)cc5)cc4)C3)cc2)cc1,53.9
5,CNC(C#N)c1ccc(OC)cc1 (stereo not drawn),> 100
6,COc1ccccc1/C(=N\OCCC(=O)O)c1cccs1,> 100
7,CCOC(=O)c1c(-c2ccc(OC)cc2)c(C#N)c(=S)n(C2OC(COC(C)=O)C(OC(C)=O)C(OC(C)=O)C2OC(C)=O)c1-c1ccccc1 (stereo not drawn),> 100
8,CCCC[C@@H]1CCN2C[C@@H](O)[C@@H](O)[C@@H]2[C@H]1O,> 100

# System: HOP-62 NSCLC
# Experiment: NCI anticancer screen, dose series, 48 h
row,SMILES,TGI [µM]
1,CN=c1nc2sc3c(c2c(NC(=S)NC)s1)CCCC3,> 100
2,COc1cc(C(=O)n2c3ccc(Br)cc3c3nc4ccccc4nc32)cc(OC)c1OC,> 100
3,CCOC(=O)C1=C(C)N(Cc2ccc(Cl)cc2Cl)C2(O)C=CC(=O)C3C(=O)N(c4ccccc4)C(=O)C132 (stereo not drawn),29.5
4,O=c1cnn(C2OC(C(O)CO)C(O)C2O)c(=O)[nH]1 (stereo not drawn),> 100
5,Nc1ccc(Oc2ccc(C34CC5CC6C3CC3CC4C(C5)C6(c4ccc(Oc5ccc(N)cc5)cc4)C3)cc2)cc1,53.6
6,COc1ccccc1/C(=N\OCCC(=O)O)c1cccs1,> 100
7,CCOC(=O)c1c(-c2ccc(OC)cc2)c(C#N)c(=S)n(C2OC(COC(C)=O)C(OC(C)=O)C(OC(C)=O)C2OC(C)=O)c1-c1ccccc1 (stereo not drawn),> 100
8,CCN(CC)CCC(=O)/C=C/c1ccccc1,54.5

# Reference: PubChem BioAssay (NCI)
